Each structure is given as a SMILES string.

This experiment deals with T1, CNOT7 (Homo sapiens, UniProt Q9UIV1).
T1 construct: biotin (biotinylated); purchased Ichor Life Sciences
T1 sequence (Q9UIV1 whole entry): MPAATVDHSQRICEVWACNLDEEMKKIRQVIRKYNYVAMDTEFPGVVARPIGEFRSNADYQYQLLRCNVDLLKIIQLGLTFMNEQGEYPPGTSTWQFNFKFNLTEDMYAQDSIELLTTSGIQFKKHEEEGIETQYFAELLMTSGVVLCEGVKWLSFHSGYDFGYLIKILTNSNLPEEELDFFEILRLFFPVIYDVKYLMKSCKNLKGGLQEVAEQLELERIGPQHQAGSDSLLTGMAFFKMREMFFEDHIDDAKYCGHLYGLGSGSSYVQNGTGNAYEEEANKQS
Put plainly: Binding of compounds to CNOT7 by surface plasmon resonance (SPR). The note with it: dissociation constant by SPR, Table 7. How it is done:
Surface plasmon resonance (SPR) was used to evaluate the binding of compounds to CNOT7. Experiments were performed on a Biacore 8K (Cytiva) with a running buffer consisting of 20 mM HEPES pH7.5, 100 mM KCl, 3 mM MgCl2, 1 mM TCEP, 0.05% tween-20, 2% DMSO. Briefly, biotinylated CNOT7 (Ichor Life Sciences) at a concentration of 70 μg/ml was immobilized to a streptavidin coated chip (Cytiva sensor chip SA) for 1200 sec at a flow rate of 5 μl/min (typical immobilization level 7,500 RU). For compound binding experiments, various concentrations of analyte were flowed over the chip with 120 sec association phase, 120 sec dissociation phase, at a flow rate of 30 ul/min and collection rate of 10 Hz. Reference channel subtraction and solvent correction were applied to all sensograms prior to data analysis. Sensograms were fit to 1:1 steady state affinity model. FIGS. 3 and 4 show the binding of exemplary compounds and the AMP control (a known CNOT7 active site binder) at various concentrations to CNOT7.
Background: SPR reads the build-up and loss of mass on a sensor chip optically.
Broadly, the Kd is the constant that tells how readily two partners part at equilibrium. High values mean weaker binding, low ones tighter binding. For `COC[C@@H](Sc1nc(=O)[nH]cc1Cl)C(=O)N[C@H](C)c1ccc2c(c1)CC(=O)N2` [Compound I-333], the Kd is 1 to 25 µM.

For the compound `COC[C@H](Sc1nc(=O)[nH]cc1Cl)C(=O)N[C@H](C)c1ccc2c(c1)CC(=O)N2` [Compound I-334], the Kd is 1 to 25 µM.

Regarding `COc1ccc(C(CN(C)C)NC(=O)CSc2nc(=O)[nH]cc2C)cc1` (centres unmarked) [Compound I-340], the Kd was > 25 µM.

The compound `C#CCOCCOCCOCC(Sc1nc(=O)[nH]cc1Cl)C(=O)NC(C)c1ccc(OC)cc1F` (centres unmarked) [Compound I-342] came in with a Kd of 1 to 25 µM.

Consider `COc1ccc([C@@H](C)NC(=O)[C@@H](CCOCCOCCOCCN=[N+]=[N-])Sc2nc(=O)[nH]cc2Cl)c(F)c1` [Compound I-349], for which the Kd lay within 1 to 25 µM.

Compound `COc1ccc([C@@H](C)NC(=O)[C@@H](COCCOCCOCCN=[N+]=[N-])Sc2nc(=O)[nH]cc2C)c(F)c1` [Compound I-367] yielded a Kd of 1 to 25 µM.

Regarding `COc1ccc([C@@H](C)NC(=O)[C@H](COCCOCCOCCN=[N+]=[N-])Sc2nc(=O)[nH]cc2C)c(F)c1` [Compound I-368], the Kd fell in the range of 1 to 25 µM.

On to `COc1ccc([C@@H](C)NC(=O)[C@@H](CCOCCOCCOCCN=[N+]=[N-])Sc2nc(=O)[nH]cc2C)c(F)c1` [Compound I-378], for which the dissociation constant Kd lay within 1 to 25 µM.

In the case of `COc1ccc(C(C)NC(=O)C(CCOCCOCCOCCn2cc(CCc3ccc(NC(=O)Nc4nc(CC(=O)N5CCN(C)CC5)cs4)cc3)nn2)Sc2nc(=O)[nH]cc2Cl)c(F)c1` (centres unmarked) [Compound I-384], the Kd was > 25 µM.

`COc1ccc([C@@H](C)NC(=O)[C@@H](COCCOCCOCCN=[N+]=[N-])Sc2nc(=O)[nH]cc2Cl)c(F)c1` [Compound I-392]: the equilibrium dissociation constant (Kd) is 1 to 25 µM.

Take `COc1ccc(CNC(=O)[C@H](CCOCCOCCOCCN=[N+]=[N-])Sc2nc(=O)[nH]cc2Cl)cc1` [Compound I-400]: the Kd is > 25 µM.

With `COc1ccc(CNC(=O)[C@@H](CCOCCOCCOCCN=[N+]=[N-])Sc2nc(=O)[nH]cc2Cl)c(F)c1` [Compound I-401], the equilibrium dissociation constant (Kd) is > 25 µM.

For the compound `COc1ccc(CNC(=O)[C@H](CCOCCOCCOCCN=[N+]=[N-])Sc2nc(=O)[nH]cc2Cl)c(F)c1` [Compound I-402], the dissociation constant (Kd) was in the range of 1 to 25 µM.

On to `COc1ccc(CNC(=O)[C@H](COCCOCCOCCN=[N+]=[N-])Sc2nc(=O)[nH]cc2C)cc1` [Compound I-404], for which the equilibrium dissociation constant (Kd) lay in the range of 1 to 25 µM.

In turn, `COc1ccc(CNC(=O)[C@@H](COCCOCCOCCN=[N+]=[N-])Sc2nc(=O)[nH]cc2C)c(F)c1` [Compound I-405] showed a dissociation constant (Kd) of 1 to 25 µM.

For the compound `Cc1c[nH]c(=O)nc1S[C@H](COCCOCCOCCN=[N+]=[N-])C(=O)NCc1ccc2c(c1)CC(=O)N2` [Compound I-407], the equilibrium dissociation constant (Kd) was 1 to 25 µM.

`Cc1c[nH]c(=O)nc1S[C@@H](COCCOCCOCCN=[N+]=[N-])C(=O)NCc1ccc2c(c1)CC(=O)N2` [Compound I-408] came in with a Kd of 1 to 25 µM.

For `[N-]=[N+]=NCCOCCOCCOCC[C@@H](Sc1nc(=O)[nH]cc1Cl)C(=O)NCc1ccc2c(c1)CC(=O)N2` [Compound I-409], the Kd is > 25 µM.

In the case of `[N-]=[N+]=NCCOCCOCCOCC[C@H](Sc1nc(=O)[nH]cc1Cl)C(=O)NCc1ccc2c(c1)CC(=O)N2` [Compound I-410], the Kd is > 25 µM.

With `COC[C@H](Sc1nc(=O)[nH]cc1C)C(=O)NCc1ccc2c(c1)CC(=O)N2C` [Compound I-412], the dissociation constant Kd lay within 1 to 25 µM.

For `COc1ccc2c(c1)C[C@@H](COCCOCCOCCOCCN=[N+]=[N-])N(C(=O)CSc1nc(=O)[nH]cc1Cl)C2` [Compound I-415], the Kd is > 25 µM.

`COc1ccc2c(c1)C[C@H](COCCOCCOCCOCCN=[N+]=[N-])N(C(=O)CSc1nc(=O)[nH]cc1Cl)C2` [Compound I-416] showed a Kd of 1 to 25 µM.

For `COc1ccc2c(c1)CCN(C(=O)[C@@H](COCCOCCOCCN=[N+]=[N-])Sc1nc(=O)[nH]cc1C)[C@@H]2C` [Compound I-421, 4-[(1R)-1-[2-[2-(2-azidoethoxy)ethoxy]ethoxymethyl]-2-[(1R)-6-methoxy-1-methyl-3,4-dihydro-1H-isoquinolin-2-yl]-2-oxo-ethyl]sulfanyl-5-methyl-1H-pyrimidin-2-one], the equilibrium dissociation constant (Kd) is > 25 µM.

As to `COc1ccc2c(c1)[C@H](COCCOCCOCCOCCN=[N+]=[N-])CN(C(=O)CSc1nc(=O)[nH]cc1Cl)[C@@H]2C` [Compound I-426], the equilibrium dissociation constant (Kd) lay in the range of 1 to 25 µM.

Take `COc1ccc2c(c1)C[C@H](COCCOCCOCCOCCN=[N+]=[N-])N(C(=O)CSc1nc(=O)[nH]cc1Cl)[C@@H]2C` [Compound I-428]: the Kd is 1 to 25 µM.

`COc1ccc2c(c1)CCN(C(=O)CSc1nc(=O)[nH]cc1Cl)C2` [Compound I-431] displayed a Kd of 1 to 25 µM.

`C#CCOCCOCCOCCOC[C@@H]1Cc2cc(OC)ccc2[C@@H](C)N1C(=O)CSc1nc(=O)[nH]cc1Cl` [Compound I-432] showed a dissociation constant Kd of 1 to 25 µM.

For the compound `C#CCOCCOCCOCCOC[C@H]1Cc2cc(OC)ccc2[C@@H](C)N1C(=O)CSc1nc(=O)[nH]cc1Cl` [Compound I-433], the Kd was > 25 µM.

For the compound `COc1cc(F)c2c(c1)CCN(C(=O)CSc1nc(=O)[nH]cc1Cl)C2` [Compound I-440], the Kd is > 25 µM.

With `COCCOCCC(Sc1nc(=O)[nH]cc1C)C(=O)NCc1ccc(OC)cc1` (centres unmarked) [Compound I-443], the dissociation constant (Kd) was 1 to 25 µM.

For `COCCOCC[C@@H](Sc1nc(=O)[nH]cc1C)C(=O)NCc1ccc(OC)cc1` [Compound I-444], the Kd was 1 to 25 µM.

For `C#CCOCCOCCOCCOC[C@@H]1Cc2cc(OC)ccc2[C@H](C)N1C(=O)CSc1nc(=O)[nH]cc1Cl` [Compound I-482], the equilibrium dissociation constant (Kd) is 1 to 25 µM.

In the case of `COc1ccc2c(c1)C[C@H](COCCOCCOCCOCCN=[N+]=[N-])N(C(=O)CSc1nc(=O)[nH]cc1C)C2` [Compound I-487], the dissociation constant Kd is > 25 µM.

For `COc1ccc(CNC(=O)[C@H](CCc2ccc(O)cc2)Sc2nc(=O)[nH]cc2C)cc1` [Compound I-489], the equilibrium dissociation constant (Kd) fell in the range of 1 to 25 µM.

Compound `COCCNC(=O)CCC(Sc1nc(=O)[nH]cc1C)C(=O)NCc1ccc(OC)cc1` (centres unmarked) [Compound I-490] showed a Kd of 1 to 25 µM.

Regarding `COc1ccc(CNC(=O)C(CCC(=O)N2CCN(C)CC2)Sc2nc(=O)[nH]cc2C)cc1` (centres unmarked) [Compound I-491], the Kd is > 25 µM.

As for `CC#CCNC(=O)CCC(Sc1nc(=O)[nH]cc1C)C(=O)NCc1ccc(OC)cc1` (centres unmarked) [Compound I-492], the Kd is > 25 µM.

For `C#CCOCCOCCOCCOC[C@H]1CN(C(=O)CSc2nc(=O)[nH]cc2Cl)[C@@H](C)c2ccc(OC)cc21` [Compound I-493], the dissociation constant (Kd) was 1 to 25 µM.

The compound `COCCN1CCN(CCC(Sc2nc(=O)[nH]cc2C)C(=O)NCc2ccc(OC)cc2)CC1` (centres unmarked) [Compound I-499] had a Kd of 1 to 25 µM.

Turning to `COCCOCC#CCC(Sc1nc(=O)[nH]cc1C)C(=O)NCc1ccc(OC)cc1` (centres unmarked) [Compound I-500], the Kd was in the range of 1 to 25 µM.

Consider `COCCOCC#CC[C@H](Sc1nc(=O)[nH]cc1C)C(=O)NCc1ccc(OC)cc1` [Compound I-502], for which the Kd fell in the range of 1 to 25 µM.

The values are drawn from US20260199485A1, “RNA DEGRADERS AND USES THEREOF” (Arrakis Therapeutics, Inc., priority 2022, published 2026).
